Assay results from the kinase profiling compilation of Christmann-Franck et al. (2016).

Columns and labels:
Experiment in all cases: radiometric filter-binding kinase assay
[1] = system: AKT1 (human), P31749 [S473D]
CHEK2 (human) = CHEK2 (human) (UniProt O96017)
CSNK1D (human) = CSNK1D (human) (UniProt P48730)
CaMK1 (human) = CaMK1 (human) (UniProt Q14012)
DYRK1A (human) = DYRK1A (human) (UniProt Q13627)
DYRK3 (human) = DYRK3 (human) (UniProt O43781)
EPHB2 (human) = EPHB2 (human) (UniProt P29323)
IKBKB (human) = IKBKB (human) (UniProt O14920)
IKBKE (human) = IKBKE (human) (UniProt Q14164)
IRAK4 (human) = IRAK4 (human) (UniProt Q9NWZ3); settings: compound 0.1 µM
JAK2 JH1 JH2 (human) = JAK2 JH1 JH2 (human) (UniProt O60674)
MAP2K1 (human) = MAP2K1 (human) (UniProt Q02750)
MAP3K11 (human) = MAP3K11 (human) (UniProt Q16584)
MAPK14 (human) = MAPK14 (human) (UniProt Q16539)
MAPK3 (human) = MAPK3 (human) (UniProt P27361)
MAPK8 (human) = MAPK8 (human) (UniProt P45983)
MAPK9 (human) = MAPK9 (human) (UniProt P45984)
MAPKAPK2 (human) = MAPKAPK2 (human) (UniProt P49137)
MARK1 (human) = MARK1 (human) (UniProt Q9P0L2); settings: compound 10.0 µM
MARK2 (human) = MARK2 (human) (UniProt Q7KZI7)
MARK3 (human) = MARK3 (human) (UniProt P27448)
MKNK1 (human) = MKNK1 (human) (UniProt Q9BUB5)
MKNK2 (human) = MKNK2 (human) (UniProt Q9HBH9)
NEK2 (human) = NEK2 (human) (UniProt P51955)
NEK6 (human) = NEK6 (human) (UniProt Q9HC98)
NTRK1 (human) = NTRK1 (human) (UniProt P04629)
NUAK1 (human) = NUAK1 (human) (UniProt O60285)
PAK4 (human) = PAK4 (human) (UniProt O96013)
PIM1 (human) = PIM1 (human) (UniProt P11309)
RPS6KA1 KD1 KD2 (human) = RPS6KA1 KD1 KD2 (human) (UniProt Q15418)
[2] = system: RPS6KB1 (human), P23443 [T412E]
[3] = biological target: STK11 CAB39 STRADA (human) (UniProt Q9Y376+Q7RTN6+Q15831)
STK3 (human) = STK3 (human) (UniProt Q13188)
TBK1 (human) = TBK1 (human) (UniProt Q9UHD2)
TTK (human) = TTK (human) (UniProt P33981)

Sequence of CSNK1D (human) (P48730 whole entry, looked up): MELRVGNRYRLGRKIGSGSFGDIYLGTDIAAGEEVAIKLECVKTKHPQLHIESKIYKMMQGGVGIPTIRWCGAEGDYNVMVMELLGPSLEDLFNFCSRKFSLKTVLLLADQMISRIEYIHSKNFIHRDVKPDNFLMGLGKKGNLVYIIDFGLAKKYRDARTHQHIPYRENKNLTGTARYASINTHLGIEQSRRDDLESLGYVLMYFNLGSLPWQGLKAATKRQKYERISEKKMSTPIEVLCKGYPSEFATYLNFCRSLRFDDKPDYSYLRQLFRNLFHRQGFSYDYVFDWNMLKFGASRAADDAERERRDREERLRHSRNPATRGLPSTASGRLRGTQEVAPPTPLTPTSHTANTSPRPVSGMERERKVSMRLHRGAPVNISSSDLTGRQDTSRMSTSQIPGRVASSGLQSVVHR
Sequence of RPS6KB1 (human), P23443 [T412E] (P23443 whole entry T412E, looked up): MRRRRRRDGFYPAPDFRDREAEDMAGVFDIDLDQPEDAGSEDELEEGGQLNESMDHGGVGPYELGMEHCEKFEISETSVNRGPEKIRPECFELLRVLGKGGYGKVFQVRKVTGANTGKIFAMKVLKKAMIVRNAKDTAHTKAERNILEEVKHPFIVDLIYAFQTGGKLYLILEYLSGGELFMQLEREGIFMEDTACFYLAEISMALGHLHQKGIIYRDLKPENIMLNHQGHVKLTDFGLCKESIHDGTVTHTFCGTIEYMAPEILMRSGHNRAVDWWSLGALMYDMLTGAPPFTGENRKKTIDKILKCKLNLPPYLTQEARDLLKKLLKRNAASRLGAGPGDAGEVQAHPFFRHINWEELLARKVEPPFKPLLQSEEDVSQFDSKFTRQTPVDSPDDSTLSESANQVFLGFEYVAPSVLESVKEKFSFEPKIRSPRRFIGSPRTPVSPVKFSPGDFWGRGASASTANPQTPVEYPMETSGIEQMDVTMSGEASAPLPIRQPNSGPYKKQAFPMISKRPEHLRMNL
Sequence of PAK4 (human) (O96013 whole entry, looked up): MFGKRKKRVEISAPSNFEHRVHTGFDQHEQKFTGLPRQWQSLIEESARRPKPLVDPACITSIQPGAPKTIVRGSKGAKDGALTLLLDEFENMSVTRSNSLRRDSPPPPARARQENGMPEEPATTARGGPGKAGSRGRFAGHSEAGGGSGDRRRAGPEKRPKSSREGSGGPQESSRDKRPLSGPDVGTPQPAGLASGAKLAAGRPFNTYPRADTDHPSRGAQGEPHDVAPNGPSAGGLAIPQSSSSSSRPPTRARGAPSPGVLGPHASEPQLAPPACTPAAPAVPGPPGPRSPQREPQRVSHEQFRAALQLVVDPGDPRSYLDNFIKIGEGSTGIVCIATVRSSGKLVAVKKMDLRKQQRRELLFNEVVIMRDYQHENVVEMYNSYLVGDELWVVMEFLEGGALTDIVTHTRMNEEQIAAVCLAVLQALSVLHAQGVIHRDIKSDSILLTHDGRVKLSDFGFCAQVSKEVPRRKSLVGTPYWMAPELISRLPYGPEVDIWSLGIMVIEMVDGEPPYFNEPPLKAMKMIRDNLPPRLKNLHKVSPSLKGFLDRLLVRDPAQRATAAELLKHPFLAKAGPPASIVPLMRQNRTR
Sequence of TBK1 (human) (Q9UHD2 whole entry, looked up): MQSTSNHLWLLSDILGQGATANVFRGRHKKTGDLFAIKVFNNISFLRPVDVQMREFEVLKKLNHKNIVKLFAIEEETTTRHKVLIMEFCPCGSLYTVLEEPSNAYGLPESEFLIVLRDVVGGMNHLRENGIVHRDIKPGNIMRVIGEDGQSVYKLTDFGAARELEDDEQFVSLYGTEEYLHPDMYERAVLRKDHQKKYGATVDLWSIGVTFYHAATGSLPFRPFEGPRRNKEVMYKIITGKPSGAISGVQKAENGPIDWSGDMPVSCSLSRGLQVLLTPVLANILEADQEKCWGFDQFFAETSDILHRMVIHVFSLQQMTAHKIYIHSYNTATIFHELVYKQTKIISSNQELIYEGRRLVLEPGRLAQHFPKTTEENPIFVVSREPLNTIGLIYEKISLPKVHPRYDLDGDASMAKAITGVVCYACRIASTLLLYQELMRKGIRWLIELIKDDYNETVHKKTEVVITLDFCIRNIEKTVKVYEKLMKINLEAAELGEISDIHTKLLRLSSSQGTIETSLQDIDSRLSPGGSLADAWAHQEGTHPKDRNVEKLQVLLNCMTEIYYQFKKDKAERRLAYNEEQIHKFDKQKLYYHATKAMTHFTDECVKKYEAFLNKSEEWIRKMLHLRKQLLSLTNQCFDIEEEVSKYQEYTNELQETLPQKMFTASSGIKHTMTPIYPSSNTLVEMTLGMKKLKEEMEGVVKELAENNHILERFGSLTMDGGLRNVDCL
Sequence of MARK3 (human) (P27448 whole entry, looked up): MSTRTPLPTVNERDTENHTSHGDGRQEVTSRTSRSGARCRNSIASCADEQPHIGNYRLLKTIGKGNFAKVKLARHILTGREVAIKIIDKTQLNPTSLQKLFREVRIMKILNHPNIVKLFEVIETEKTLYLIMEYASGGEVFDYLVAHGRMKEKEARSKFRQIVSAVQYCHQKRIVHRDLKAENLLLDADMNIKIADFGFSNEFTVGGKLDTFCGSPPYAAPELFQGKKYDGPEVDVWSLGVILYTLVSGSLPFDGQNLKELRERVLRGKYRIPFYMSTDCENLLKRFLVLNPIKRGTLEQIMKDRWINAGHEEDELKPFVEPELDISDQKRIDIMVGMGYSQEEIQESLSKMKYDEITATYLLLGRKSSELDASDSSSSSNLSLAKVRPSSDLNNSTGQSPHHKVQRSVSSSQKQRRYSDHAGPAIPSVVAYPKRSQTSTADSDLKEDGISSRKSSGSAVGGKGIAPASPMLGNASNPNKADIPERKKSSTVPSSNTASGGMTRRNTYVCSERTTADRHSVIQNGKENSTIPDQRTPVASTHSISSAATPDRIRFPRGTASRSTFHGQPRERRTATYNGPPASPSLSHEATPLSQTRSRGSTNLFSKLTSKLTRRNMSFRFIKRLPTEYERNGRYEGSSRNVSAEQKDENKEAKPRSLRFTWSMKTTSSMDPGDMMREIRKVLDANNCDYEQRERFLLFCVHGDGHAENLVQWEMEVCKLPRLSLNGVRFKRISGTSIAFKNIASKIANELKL
Sequence of STK11 CAB39 STRADA (human) (Q15831 whole entry, looked up): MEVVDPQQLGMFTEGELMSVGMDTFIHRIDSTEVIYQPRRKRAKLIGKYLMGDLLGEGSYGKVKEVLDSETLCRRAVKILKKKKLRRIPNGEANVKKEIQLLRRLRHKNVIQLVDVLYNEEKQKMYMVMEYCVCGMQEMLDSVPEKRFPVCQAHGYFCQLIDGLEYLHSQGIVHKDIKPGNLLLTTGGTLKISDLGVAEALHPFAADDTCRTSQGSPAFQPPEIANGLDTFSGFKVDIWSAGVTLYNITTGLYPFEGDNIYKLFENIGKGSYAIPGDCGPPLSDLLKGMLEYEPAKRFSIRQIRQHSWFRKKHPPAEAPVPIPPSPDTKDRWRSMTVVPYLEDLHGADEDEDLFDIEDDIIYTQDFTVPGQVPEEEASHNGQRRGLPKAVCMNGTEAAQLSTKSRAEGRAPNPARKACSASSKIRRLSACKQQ
Sequence of STK11 CAB39 STRADA (human) (Q7RTN6 whole entry, looked up): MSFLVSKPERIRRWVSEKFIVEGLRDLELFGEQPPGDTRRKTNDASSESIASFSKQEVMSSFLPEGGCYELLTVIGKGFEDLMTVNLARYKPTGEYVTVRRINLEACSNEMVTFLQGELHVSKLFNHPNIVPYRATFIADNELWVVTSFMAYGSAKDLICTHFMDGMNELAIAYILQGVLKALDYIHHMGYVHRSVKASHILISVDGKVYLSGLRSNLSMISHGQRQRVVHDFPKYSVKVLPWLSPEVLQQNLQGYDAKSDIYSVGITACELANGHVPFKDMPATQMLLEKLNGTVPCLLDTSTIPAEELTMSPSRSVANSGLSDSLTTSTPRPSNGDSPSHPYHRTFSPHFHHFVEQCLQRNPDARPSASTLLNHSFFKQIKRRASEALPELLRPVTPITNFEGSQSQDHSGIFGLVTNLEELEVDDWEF
Sequence of STK11 CAB39 STRADA (human) (Q9Y376 whole entry, looked up): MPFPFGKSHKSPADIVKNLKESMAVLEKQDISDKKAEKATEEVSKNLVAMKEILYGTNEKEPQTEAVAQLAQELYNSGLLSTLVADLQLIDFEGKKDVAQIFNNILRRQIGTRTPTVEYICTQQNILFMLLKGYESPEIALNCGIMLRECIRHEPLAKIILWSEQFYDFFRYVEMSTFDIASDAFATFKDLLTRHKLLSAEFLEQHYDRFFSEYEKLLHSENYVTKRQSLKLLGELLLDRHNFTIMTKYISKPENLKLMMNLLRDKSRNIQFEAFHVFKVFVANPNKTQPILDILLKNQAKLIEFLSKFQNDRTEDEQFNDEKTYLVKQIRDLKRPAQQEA
Sequence of MKNK1 (human) (Q9BUB5 whole entry, looked up): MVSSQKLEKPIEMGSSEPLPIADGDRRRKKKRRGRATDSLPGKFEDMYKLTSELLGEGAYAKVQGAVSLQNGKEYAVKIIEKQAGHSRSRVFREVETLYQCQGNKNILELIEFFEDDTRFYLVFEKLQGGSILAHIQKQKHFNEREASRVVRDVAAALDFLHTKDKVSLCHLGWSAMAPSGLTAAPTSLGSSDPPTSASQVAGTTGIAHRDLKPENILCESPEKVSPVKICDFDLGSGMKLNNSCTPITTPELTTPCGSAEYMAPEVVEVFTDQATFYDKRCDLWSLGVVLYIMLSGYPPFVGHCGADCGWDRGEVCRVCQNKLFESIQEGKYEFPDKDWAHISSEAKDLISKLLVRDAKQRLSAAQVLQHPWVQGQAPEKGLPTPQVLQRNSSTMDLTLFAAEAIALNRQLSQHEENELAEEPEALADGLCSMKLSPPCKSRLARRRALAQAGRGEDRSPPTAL
Sequence of NEK6 (human) (Q9HC98 whole entry, looked up): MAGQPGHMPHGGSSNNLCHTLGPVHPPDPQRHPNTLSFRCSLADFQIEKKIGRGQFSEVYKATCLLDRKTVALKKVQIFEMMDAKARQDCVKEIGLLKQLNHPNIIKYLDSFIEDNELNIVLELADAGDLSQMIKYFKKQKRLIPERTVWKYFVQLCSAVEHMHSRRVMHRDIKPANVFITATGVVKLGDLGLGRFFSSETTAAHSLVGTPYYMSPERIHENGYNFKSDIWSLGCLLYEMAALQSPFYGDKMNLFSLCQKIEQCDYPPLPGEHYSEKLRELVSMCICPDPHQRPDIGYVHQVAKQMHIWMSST

Q: What does the source list for `O=C(N[C@@H](COc1ccc2[nH]c(=O)[nH]c2c1)c1ccccc1)c1cccn(Cc2ccc(F)c(F)c2)c1=O`?
A: residual activity ([1]; compound 0.1 µM): 96%; residual activity ([1]; compound 1.0 µM): 97%; residual activity ([1]; compound 10.0 µM): 90%; residual activity (CHEK2 (human); compound 0.1 µM): 102%; residual activity (CHEK2 (human); compound 1.0 µM): 106%; residual activity (CHEK2 (human); compound 10.0 µM): 100%; residual activity (CSNK1D (human); compound 0.1 µM): 103%; residual activity (CSNK1D (human); compound 1.0 µM): 110%; residual activity (CSNK1D (human); compound 10.0 µM): 113%; residual activity (CaMK1 (human); compound 0.1 µM): 95%; residual activity (CaMK1 (human); compound 1.0 µM): 92%; residual activity (CaMK1 (human); compound 10.0 µM): 51%; residual activity (DYRK1A (human); compound 0.1 µM): 113%; residual activity (DYRK1A (human); compound 1.0 µM): 97%; residual activity (DYRK1A (human); compound 10.0 µM): 79%; residual activity (DYRK3 (human); compound 0.1 µM): 109%; residual activity (DYRK3 (human); compound 1.0 µM): 109%; residual activity (DYRK3 (human); compound 10.0 µM): 93%; residual activity (EPHB2 (human); compound 0.1 µM): 118%; residual activity (EPHB2 (human); compound 10.0 µM): 121%; residual activity (IKBKB (human); compound 0.1 µM): 102%; residual activity (IKBKB (human); compound 1.0 µM): 99%; residual activity (IKBKB (human); compound 10.0 µM): 99%; residual activity (IKBKE (human); compound 0.1 µM): 103%; residual activity (IKBKE (human); compound 1.0 µM): 109%; residual activity (IKBKE (human); compound 10.0 µM): 95%; residual activity (IRAK4 (human)): 110%; residual activity (JAK2 JH1 JH2 (human); compound 0.1 µM): 98%; residual activity (JAK2 JH1 JH2 (human); compound 1.0 µM): 99%; residual activity (JAK2 JH1 JH2 (human); compound 10.0 µM): 101%; residual activity (MAP2K1 (human); compound 0.1 µM): 100%; residual activity (MAP2K1 (human); compound 10.0 µM): 95%; residual activity (MAP3K11 (human); compound 0.1 µM): 104%; residual activity (MAP3K11 (human); compound 1.0 µM): 97%; residual activity (MAP3K11 (human); compound 10.0 µM): 46%; residual activity (MAPK14 (human); compound 0.1 µM): 114%; residual activity (MAPK14 (human); compound 1.0 µM): 121%; residual activity (MAPK14 (human); compound 10.0 µM): 114%; residual activity (MAPK3 (human); compound 0.1 µM): 93%; residual activity (MAPK3 (human); compound 1.0 µM): 101%; residual activity (MAPK3 (human); compound 10.0 µM): 95%; residual activity (MAPK8 (human); compound 0.1 µM): 100%; residual activity (MAPK8 (human); compound 10.0 µM): 114%; residual activity (MAPK9 (human); compound 0.1 µM): 93%; residual activity (MAPK9 (human); compound 1.0 µM): 97%; residual activity (MAPK9 (human); compound 10.0 µM): 95%; residual activity (MAPKAPK2 (human); compound 0.1 µM): 99%; residual activity (MAPKAPK2 (human); compound 1.0 µM): 101%; residual activity (MAPKAPK2 (human); compound 10.0 µM): 90%; residual activity (MARK1 (human)): 107%; residual activity (MARK2 (human); compound 0.1 µM): 105%; residual activity (MARK2 (human); compound 1.0 µM): 102%; residual activity (MARK2 (human); compound 10.0 µM): 88%; residual activity (MARK3 (human); compound 0.1 µM): 99%; residual activity (MARK3 (human); compound 1.0 µM): 93%; residual activity (MARK3 (human); compound 10.0 µM): 83%; residual activity (MKNK1 (human); compound 0.1 µM): 106%; residual activity (MKNK1 (human); compound 1.0 µM): 99%; residual activity (MKNK1 (human); compound 10.0 µM): 99%; residual activity (MKNK2 (human); compound 0.1 µM): 117%; residual activity (MKNK2 (human); compound 10.0 µM): 112%; residual activity (NEK2 (human); compound 0.1 µM): 107%; residual activity (NEK2 (human); compound 1.0 µM): 97%; residual activity (NEK2 (human); compound 10.0 µM): 96%; residual activity (NEK6 (human); compound 0.1 µM): 104%; residual activity (NEK6 (human); compound 1.0 µM): 100%; residual activity (NEK6 (human); compound 10.0 µM): 98%; residual activity (NTRK1 (human); compound 0.1 µM): 113%; residual activity (NTRK1 (human); compound 1.0 µM): 98%; residual activity (NTRK1 (human); compound 10.0 µM): 78%; residual activity (NUAK1 (human); compound 0.1 µM): 115%; residual activity (NUAK1 (human); compound 1.0 µM): 107%; residual activity (NUAK1 (human); compound 10.0 µM): 98%; residual activity (PAK4 (human); compound 0.1 µM): 102%; residual activity (PAK4 (human); compound 1.0 µM): 101%; residual activity (PAK4 (human); compound 10.0 µM): 67%; residual activity (PIM1 (human); compound 0.1 µM): 101%; residual activity (PIM1 (human); compound 1.0 µM): 105%; residual activity (PIM1 (human); compound 10.0 µM): 76%; residual activity (RPS6KA1 KD1 KD2 (human); compound 0.1 µM): 95%; residual activity (RPS6KA1 KD1 KD2 (human); compound 1.0 µM): 93%; residual activity (RPS6KA1 KD1 KD2 (human); compound 10.0 µM): 114%; residual activity ([2]; compound 0.1 µM): 103%; residual activity ([2]; compound 1.0 µM): 97%; residual activity ([2]; compound 10.0 µM): 98%; residual activity ([3]; compound 0.1 µM): 102%; residual activity ([3]; compound 1.0 µM): 100%; residual activity ([3]; compound 10.0 µM): 93%; residual activity (STK3 (human); compound 0.1 µM): 102%; residual activity (STK3 (human); compound 1.0 µM): 105%; residual activity (STK3 (human); compound 10.0 µM): 100%; residual activity (TBK1 (human); compound 0.1 µM): 109%; residual activity (TBK1 (human); compound 1.0 µM): 132%; residual activity (TBK1 (human); compound 10.0 µM): 102%; residual activity (TTK (human); compound 0.1 µM): 99%; residual activity (TTK (human); compound 1.0 µM): 100%; residual activity (TTK (human); compound 10.0 µM): 95%
